Test results from the supplement of paper PMC10307832.

Columns and labels:
Experiment in all cases: relative viability (nuclei count vs DMSO), 5 days (fraction); higher = more cells survive
ALW-II-49-7 + Foretinib = compound: Cc1ccc(C(=O)Nc2cccc(C(F)(F)F)c2)cc1Nc1cncc(C(N)=O)c1 [ALW-II-49-7] + COc1cc2c(Oc3ccc(NC(=O)C4(C(=O)Nc5ccc(F)cc5)CC4)cc3F)ccnc2cc1OCCCN1CCOCC1 [Foretinib] (partner 0.25 µM)
Outline: (§1)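 Each reported value is a median over duplicate plates. It expresses relative viability: treated-well nuclei count divided by vehicle-well nuclei count. Lung cancer cell lines in 1536-well plates were dosed by pin tool a day after seeding, alone with one drug or with a fixed anchor-drug dose plus five library-drug doses (not always all listed) in √10 steps, and nuclei were counted after 5 days.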

Dasatinib + Pemetrexed = compound: Cc1nc(Nc2ncc(C(=O)Nc3c(C)cccc3Cl)s2)cc(N2CCN(CCO)CC2)n1 [Dasatinib] + Nc1nc2[nH]cc(CCc3ccc(C(=O)N[C@@H](CCC(=O)O)C(=O)O)cc3)c2c(=O)[nH]1 [Pemetrexed] (partner 0.2 µM)
Outline: as §1

Dasatinib + Linsitinib = compound: Cc1nc(Nc2ncc(C(=O)Nc3c(C)cccc3Cl)s2)cc(N2CCN(CCO)CC2)n1 [Dasatinib] + C[C@]1(O)C[C@@H](c2nc(-c3ccc4ccc(-c5ccccc5)nc4c3)c3c(N)nccn32)C1 [Linsitinib] (partner 1 µM)
Outline: as §1

Dasatinib + Foretinib = compound: Cc1nc(Nc2ncc(C(=O)Nc3c(C)cccc3Cl)s2)cc(N2CCN(CCO)CC2)n1 [Dasatinib] + COc1cc2c(Oc3ccc(NC(=O)C4(C(=O)Nc5ccc(F)cc5)CC4)cc3F)ccnc2cc1OCCCN1CCOCC1 [Foretinib] (partner 0.25 µM)
Outline: as §1

Cell Line	relative viability (ALW-II-49-7 + Foretinib; first compound 0.08 µM)	relative viability (ALW-II-49-7 + Foretinib; first compound 0.253 µM)	relative viability (ALW-II-49-7 + Foretinib; first compound 0.8 µM)	relative viability (ALW-II-49-7 + Foretinib; first compound 2.53 µM)	relative viability (ALW-II-49-7 + Foretinib; first compound 8 µM)	relative viability (Dasatinib + Pemetrexed; first compound 0.005 µM)	relative viability (Dasatinib + Pemetrexed; first compound 0.01581 µM)	relative viability (Dasatinib + Pemetrexed; first compound 0.05 µM)	relative viability (Dasatinib + Pemetrexed; first compound 0.1581 µM)	relative viability (Dasatinib + Pemetrexed; first compound 0.5 µM)	relative viability (Dasatinib + Linsitinib; first compound 0.005 µM)	relative viability (Dasatinib + Linsitinib; first compound 0.01581 µM)	relative viability (Dasatinib + Linsitinib; first compound 0.05 µM)	relative viability (Dasatinib + Linsitinib; first compound 0.1581 µM)	relative viability (Dasatinib + Linsitinib; first compound 0.5 µM)	relative viability (Dasatinib + Foretinib; first compound 0.005 µM)	relative viability (Dasatinib + Foretinib; first compound 0.01581 µM)	relative viability (Dasatinib + Foretinib; first compound 0.05 µM)	relative viability (Dasatinib + Foretinib; first compound 0.1581 µM)	relative viability (Dasatinib + Foretinib; first compound 0.5 µM)
NCI-H460	1.09	1.05	0.84	1.02	0.899	0.0609	0.062	0.0522	0.0587	0.0433	0.315	0.229	0.157	0.0338	0.0131	1.04	0.904	0.808	0.716	0.746
LCLC-103H	0.707	0.832	0.926	0.735	0.77	0.517	0.437	0.481	0.461	0.328	1.07	0.961	0.88	0.568	0.388	0.725	0.626	0.55	0.378	0.157
HCC-827	1.02	1.13	1.07	0.954	1.02	0.253	0.251	0.256	0.239	0.133	1.03	1.05	0.971	0.581	0.102	1.06	0.898	0.748	0.288	0.0947
NCI-H322M	0.825	0.996	0.908	0.771	0.962	0.576	0.495	0.394	0.273	0.231	1.04	0.703	0.708	0.319	0.196	0.909	0.75	0.485	0.285	0.233
NCI-H1666	0.954	0.887	0.964	1.05	1.05	0.871	0.848	0.88	0.73	0.633	0.806	0.595	0.788	0.464	0.288	1.12	0.989	1.07	0.862	0.425
NCI-H1563	0.942	0.97	0.948	0.95	0.899	0.684	0.625	0.487	0.458	0.4	0.961	0.794	0.779	0.761	0.601	0.82	0.751	0.746	0.578	0.517
NCI-H1793	0.667	0.642	0.728	0.701	0.855	0.609	0.503	0.556	0.424	0.488	0.524	0.644	0.553	0.506	0.472	0.553	0.528	0.374	0.337	0.359
NCI-H1437	1.35	1.26	1.2	1.26	1.16	0.351	0.336	0.287	0.256	0.203	1.02	1.03	1.09	0.859	0.377	1.25	1.23	1.32	1.07	0.848
NCI-H358	0.691	0.658	0.575	0.809	0.689	0.16	0.176	0.143	0.151	0.129	0.607	0.484	0.387	0.232	0.277	0.649	0.532	0.433	0.198	0.162
NCI-H1355	1.05	0.895	0.969	0.887	1.02	1.04	0.92	1.1	0.806	0.663	0.686	0.597	0.667	0.428	0.369	1.03	0.719	0.908	0.722	0.644
SK-LU-1	0.894	0.895	0.923	0.797	0.592	0.864	0.617	0.467	0.306	0.282	0.636	0.445	0.435	0.261	0.242	0.543	0.343	0.295	0.171	0.179
NCI-H2228	1.07	0.651	0.736	0.848	0.795	0.323	0.325	0.319	0.259	0.128	0.629	0.593	0.649	0.326	0.215	0.853	0.614	0.766	0.51	0.407
NCI-H2347	1.1	1.04	0.906	0.227	0.844	0.375	0.38	0.342	0.253	0.259	1.01	0.935	0.943	0.402	0.159	0.625	0.504	0.436	0.378	0.495
A-427	1.16	0.95	1.12	1.14	1.2	0.972	0.832	0.807	0.556	0.619	1.1	1.14	0.995	0.574	0.535	0.971	1.04	0.974	0.694	0.599
HCC-366	1	1.02	0.941	1	1.08	0.173	0.147	0.166	0.177	0.114	0.122	0.0525	0.067	0.0321	0.04	0.739	0.588	0.543	0.563	0.449
HCC-78	0.524	0.487		0.528	0.586	0.913	0.894	0.936	0.899	0.76	0.376	0.447	0.408	0.363	0.24	0.549	0.461	0.384	0.302	0.249
